Values quoted from earlier work in US20200061095A1, “Compounds for the Treatment of Systemic Insulin Resistance Disorders and the Use Thereof” (Galectin Sciences, LLC, priority 2017, published 2020).

Experiments:
[1] = test system: lung fibrosis; conditions: pulmonary administration, intra-tracheal instillation or nebulizers
[2] = target: Galectin 3 (Homo sapiens, UniProt P17931); conditions: reported
Galectin 3, sequence (P17931 whole entry, species assumed): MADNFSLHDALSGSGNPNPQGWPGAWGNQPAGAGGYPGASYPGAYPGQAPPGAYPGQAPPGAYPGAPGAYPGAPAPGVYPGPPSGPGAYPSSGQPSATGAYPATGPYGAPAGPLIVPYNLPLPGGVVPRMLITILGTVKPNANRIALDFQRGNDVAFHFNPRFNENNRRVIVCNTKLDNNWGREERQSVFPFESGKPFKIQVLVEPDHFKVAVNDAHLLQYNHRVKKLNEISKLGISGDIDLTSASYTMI

In the case of `OC[C@H]1O[C@@H](S[C@@H]2O[C@H](CO)[C@H](O)[C@H](n3cc(-c4cccc(F)c4)nn3)[C@H]2O)[C@H](O)[C@@H](n2cc(-c3cccc(F)c3)nn2)[C@H]1O` [TD-139], the “efficacy in mouse model of lung fibrosis” value [1] is given as “effective” and the “binding to Galectin 3” value [2] is given as “bind to Galectin 3”.
